Measurements: patent US20120238566A1, “USE OF CELL AUTOPHAGY (TYPE II CELL APOPTOSIS) INHIBITORS” (priority 2009, published 2012)
Entries after “also recorded” stand apart in the source; their conditions may differ. Where two headings read alike, the source gives them in different places.

How the values were obtained:
[1] = test system: A549 cells; format: cell-based
[2] = test system: Balb/c mice lung; details: mouse, in vivo
[3] = test system: A549 cells; format: cell-based; remark: listed apart in the source
[4] = test system: A549 cells; format: cell-based; remark: listed apart in the source
[5] = test system: Balb/c mice lung; details: mouse, in vivo; remark: listed apart in the source
[6] = test system: Balb/c mice; details: mouse, in vivo
[7] = test system: Balb/c mice lung; details: mouse, in vivo; remark: listed apart in the source
[8] = test system: LC3; set-up: species or system Balb/c mice; details: mouse, in vivo
[9] = test system: Balb/c mice lung; details: mouse, in vivo; remark: listed apart in the source

| SMILES | survival rate of A549 cells [1] | counts of inflammatory cells in lung pathological sections [2] | percentage of A549 cells with autophagy induced by PAMAM G3, electron microscope [3] | percentage of cells with EGFP-LC3 agglutination [4] | lung injury, pathological sections [5] | survival curve of mice [6] | lung wet/dry ratio [7] | lung wet/dry ratio ([7]; ip) | content of LC3 II in mice lung tissue (ratio to β-actin) [8] | lung elasticity [9] | cell autophagy induced by inactivated H5N1 avian influenza virus, electron microscope [3] |
| --- | --- | --- | --- | --- | --- | --- | --- | --- | --- | --- | --- |
| Cn1cnc(N)c2ncnc1-2 [3-MA, 3-methyladenine] | decreases the cell death; also recorded: can significantly reduce cell death | reduced the augmentation of the counts inflammatory cells | can be relieved; also recorded: reduced the percentage of cells with autophagy | can be relieved | has some effect on ameliorating the lung injury | can significantly relieve the death of mice; also recorded: has effect on delaying the death of mice | decreased the augmentation of wet/dry ratio | relieved the increased lung wet/dry ratio | relieved the occurrence of autophagy | relieves the changes of lung elasticity; also recorded: has some effect on relieving the induced injury |  |
| C[S+]([O-])c1ccc(-c2nc(-c3ccncc3)c(-c3ccc(F)cc3)[nH]2)cc1 (stereo not shown) [SB203580] |  | reduced the counts of infiltrated inflammatory cells; also recorded: reduced the augmentation of infiltrated inflammatory cells |  |  | has some effect on ameliorating the lung injury; also recorded: has some effect on amelioratiing the lung injury |  |  |  |  |  | reduced cell autophagy; also recorded: can effectively inhibit the occurrence of autophagy |
